Calls of active or inactive are those of the source.

We go through four compounds from ChEMBL document CHEMBL1201862, “PubChem BioAssay data set” (2004).

Assay [1] addresses Small ubiquitin-related modifier 1 (Homo sapiens, UniProt P63165). The assay is described as follows: SUMO1 protein-protein binding blockers, potency – biochemical, FRET, dose response (AID 624383). The class given is functional. The note with it: read-out: IC50_Mean.
The target of assay [2] is T1, Serine/threonine-protein phosphatase (Candida dubliniensis (strain CD36 / CBS 7987 / NCPF 3949 / NRRLY-17841) (Yeast), UniProt B9W6M3).
T1 sequence (B9W6M3 whole entry): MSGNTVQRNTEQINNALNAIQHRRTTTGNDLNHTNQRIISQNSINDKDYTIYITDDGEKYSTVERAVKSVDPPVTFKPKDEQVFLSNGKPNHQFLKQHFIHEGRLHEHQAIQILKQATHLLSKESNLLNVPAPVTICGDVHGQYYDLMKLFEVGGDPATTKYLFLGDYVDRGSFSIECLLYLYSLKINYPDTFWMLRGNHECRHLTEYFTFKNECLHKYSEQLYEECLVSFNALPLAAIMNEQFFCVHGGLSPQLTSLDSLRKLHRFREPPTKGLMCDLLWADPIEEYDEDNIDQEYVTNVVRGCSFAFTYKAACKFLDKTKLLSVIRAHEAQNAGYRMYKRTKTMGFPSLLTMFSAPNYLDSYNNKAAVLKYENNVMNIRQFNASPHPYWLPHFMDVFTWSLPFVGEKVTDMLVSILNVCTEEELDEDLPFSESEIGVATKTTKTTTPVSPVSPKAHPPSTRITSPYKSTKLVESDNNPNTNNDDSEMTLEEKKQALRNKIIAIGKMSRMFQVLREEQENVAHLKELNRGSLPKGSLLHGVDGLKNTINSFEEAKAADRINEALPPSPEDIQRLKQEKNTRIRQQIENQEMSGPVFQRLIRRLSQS
The assay is described as follows: blockers of CaCl2-induced CDRE-lacZ signaling – S. cerevisiae, luminescence, secondary, dose response (AID 2388).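 Further: yeast reporter cells carrying a calcineurin-responsive lacZ construct stimulated with calcium chloride; luminescent beta-galactosidase reporter signal in whole cells rather than isolated phosphatase activity; potency for inhibition where a drop in reporter signal means calcineurin blockade.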 The format is functional, cell-based.

Assay [3] deals with Dual specificity protein phosphatase 3 (Homo sapiens, UniProt P51452). The assay is described as follows: VHR1 phosphatase inhibitors, biochemical (AID 1878).
Chain of Dual specificity protein phosphatase 3 (P51452 whole entry): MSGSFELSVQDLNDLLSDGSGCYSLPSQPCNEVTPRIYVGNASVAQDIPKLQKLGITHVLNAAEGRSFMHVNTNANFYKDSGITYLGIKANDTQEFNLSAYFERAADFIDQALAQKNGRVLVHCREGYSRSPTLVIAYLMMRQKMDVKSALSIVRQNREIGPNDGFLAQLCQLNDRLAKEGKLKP
Assay [4] addresses T2, Replicative DNA helicase DnaB (Mycobacterium tuberculosis, UniProt P9WMR3).
T2 sequence (P9WMR3 whole entry): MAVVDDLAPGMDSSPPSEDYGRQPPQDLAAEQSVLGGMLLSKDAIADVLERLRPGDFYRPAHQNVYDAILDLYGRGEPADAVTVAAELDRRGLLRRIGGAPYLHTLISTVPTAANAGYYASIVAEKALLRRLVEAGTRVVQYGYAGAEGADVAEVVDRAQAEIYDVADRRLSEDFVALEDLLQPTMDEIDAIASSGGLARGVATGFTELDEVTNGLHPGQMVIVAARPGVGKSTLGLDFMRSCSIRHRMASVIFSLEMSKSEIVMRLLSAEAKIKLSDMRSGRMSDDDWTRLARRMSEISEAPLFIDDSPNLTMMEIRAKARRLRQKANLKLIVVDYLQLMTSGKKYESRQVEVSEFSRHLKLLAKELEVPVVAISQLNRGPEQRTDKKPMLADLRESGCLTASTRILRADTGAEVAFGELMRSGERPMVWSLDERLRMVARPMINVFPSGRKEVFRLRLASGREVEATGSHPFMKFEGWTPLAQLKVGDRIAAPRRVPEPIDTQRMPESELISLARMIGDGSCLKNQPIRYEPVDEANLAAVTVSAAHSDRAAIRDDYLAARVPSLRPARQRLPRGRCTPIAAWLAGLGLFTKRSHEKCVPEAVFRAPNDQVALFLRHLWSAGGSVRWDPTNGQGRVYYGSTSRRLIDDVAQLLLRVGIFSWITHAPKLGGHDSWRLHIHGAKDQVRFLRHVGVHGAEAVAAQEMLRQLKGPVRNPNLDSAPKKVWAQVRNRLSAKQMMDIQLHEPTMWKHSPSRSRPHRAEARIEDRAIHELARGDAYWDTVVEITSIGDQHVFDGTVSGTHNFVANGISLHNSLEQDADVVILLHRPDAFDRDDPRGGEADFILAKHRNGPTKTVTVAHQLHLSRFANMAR
The assay is described as follows: DnaB Intein secondary assay Measured in Biochemical System Using Plate Reader - 2047-04_Inhibitor_Dose_DryPowder_Activity. [Related pubchem assays (depositor defined):AID2223].

Assay [5] concerns the target Dual specificity tyrosine-phosphorylation-regulated kinase 1A (Rattus norvegicus, UniProt Q63470). The class given is biochemical, Homo sapiens.
Assay [6] addresses Tyrosyl-DNA phosphodiesterase 2 (Homo sapiens, UniProt O95551). The assay is described as follows: potency against TDP2 phosphodiesterase activity – biochemical, epi absorbance, IC50, dose response (AID 743297).
Assay [7] concerns the target Sphingosine 1-phosphate receptor 2 (Homo sapiens, UniProt O95136). The assay is described as follows: Dose Response Cell Based Assay for Antagonists of the S1P2 Receptor. [Related pubchem assays: 856, 736 ]. The format is functional.
Assay [8] addresses T3, Streptokinase A (Streptococcus pyogenes serotype M1, UniProt P10520).
T3 sequence (P10520 whole entry): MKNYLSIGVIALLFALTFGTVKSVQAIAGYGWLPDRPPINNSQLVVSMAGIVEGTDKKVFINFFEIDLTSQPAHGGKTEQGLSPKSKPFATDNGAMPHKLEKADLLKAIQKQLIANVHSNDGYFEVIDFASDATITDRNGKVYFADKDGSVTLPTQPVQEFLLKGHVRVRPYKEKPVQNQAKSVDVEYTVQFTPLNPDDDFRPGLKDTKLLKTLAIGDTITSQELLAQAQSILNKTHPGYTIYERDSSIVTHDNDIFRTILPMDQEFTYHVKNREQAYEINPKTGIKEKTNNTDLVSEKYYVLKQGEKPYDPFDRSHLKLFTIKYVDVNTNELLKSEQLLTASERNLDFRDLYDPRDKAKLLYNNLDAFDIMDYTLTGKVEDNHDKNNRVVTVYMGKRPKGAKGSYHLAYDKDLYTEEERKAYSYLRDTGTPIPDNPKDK
The assay is described as follows: viability-normalized secreted streptokinase activity reduction – plasminogen activation absorbance, OD405, dose response (AID 1914).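 Further: secreted streptokinase activity via plasminogen activation per viability signal from cell pellet.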 The class given is functional, Streptococcus pyogenes M1 GAS.

Assay [9] has as its target T4, Calpain-2 catalytic subunit (Sus scrofa, UniProt P43367).
T4 sequence (P43367 whole entry): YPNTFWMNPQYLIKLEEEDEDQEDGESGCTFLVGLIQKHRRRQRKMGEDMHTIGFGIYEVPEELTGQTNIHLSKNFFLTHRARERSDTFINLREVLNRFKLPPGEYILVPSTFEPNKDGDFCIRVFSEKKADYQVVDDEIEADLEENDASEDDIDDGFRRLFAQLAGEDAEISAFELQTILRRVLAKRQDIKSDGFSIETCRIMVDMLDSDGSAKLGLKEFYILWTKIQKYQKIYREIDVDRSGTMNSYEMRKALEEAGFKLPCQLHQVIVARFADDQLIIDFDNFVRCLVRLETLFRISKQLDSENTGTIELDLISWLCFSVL
The assay is described as follows: m-calpain protease blockers, concentration series – biochemical, fluorogenic peptide substrate, dose response (AID 1420). The class given is functional.

A short description of assay [10]: DRD fibroblast viability loss – cell-based, non-viral oncogenic, luminescence, dose response (AID 1934). The class given is functional. The conditions noted are these: Homo sapiens.

Chain of Small ubiquitin-related modifier 1 (P63165 whole entry): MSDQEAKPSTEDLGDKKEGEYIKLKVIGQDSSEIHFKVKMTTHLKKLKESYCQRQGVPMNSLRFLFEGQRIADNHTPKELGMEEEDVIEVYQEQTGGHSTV
Chain of Sphingosine 1-phosphate receptor 2 (O95136 whole entry): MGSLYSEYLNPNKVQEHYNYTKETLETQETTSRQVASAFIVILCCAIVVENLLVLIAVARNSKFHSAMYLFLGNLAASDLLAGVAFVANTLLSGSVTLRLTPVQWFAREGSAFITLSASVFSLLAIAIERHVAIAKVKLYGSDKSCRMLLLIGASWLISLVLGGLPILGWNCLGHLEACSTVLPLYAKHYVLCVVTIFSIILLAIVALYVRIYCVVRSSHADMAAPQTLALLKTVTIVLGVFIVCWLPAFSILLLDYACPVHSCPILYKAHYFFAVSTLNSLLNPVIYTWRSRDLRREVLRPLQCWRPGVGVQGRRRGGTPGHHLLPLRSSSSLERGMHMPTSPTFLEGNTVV
Chain of Tyrosyl-DNA phosphodiesterase 2 (O95551 whole entry): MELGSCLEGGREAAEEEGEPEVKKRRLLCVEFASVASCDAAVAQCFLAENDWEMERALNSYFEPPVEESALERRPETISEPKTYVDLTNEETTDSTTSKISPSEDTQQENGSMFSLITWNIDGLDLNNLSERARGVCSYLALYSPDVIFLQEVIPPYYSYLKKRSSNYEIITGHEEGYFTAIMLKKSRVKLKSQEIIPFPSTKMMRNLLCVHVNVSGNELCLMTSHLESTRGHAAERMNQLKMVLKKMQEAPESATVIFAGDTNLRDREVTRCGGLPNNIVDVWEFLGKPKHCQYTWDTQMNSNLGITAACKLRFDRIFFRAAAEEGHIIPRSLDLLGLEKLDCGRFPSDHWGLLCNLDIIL

With `COc1ccc(NS(=O)(=O)c2ccc3c(c2)[C@H]2C=CC[C@H]2[C@@H](c2ccc(C(=O)O)cc2)N3)cc1`, in assay [1], the IC50 is 24.5 µM (inactive).

One may read the EC50 as the concentration at which the effect is half-maximal. With `CCC(=O)NC(c1ccc(OC)cc1)c1cc(Cl)c2cccnc2c1O` (stereo not given), the EC50 in assay [2] was > 180 µM (inactive).

The AC50 is the midpoint of the concentration-response curve, whichever way the signal moves. For the compound `Cn1nc(-c2ccccn2)nc2c(=O)n(C)c(=O)nc1-2`, the IC50 is 10.2 µM (active) in assay [3] and 210 nM (active) in assay [6]. The AC50 was 503 nM (active) in assay [4] and 284 nM (active) in assay [5].

Regarding `CCCCCCCCCCn1c2c(c(=N)c3c1CCC3)CCC2`, the results for the IC50 in [7] and in assay [9] were 2.94 µM (active) and 6.72 µM (active), respectively. In addition, the EC50 was 4.86 µM (active) in assay [8] and 3.44 µM (inconclusive) in assay [10].
